According to article PMC3210919 (Biochemistry, 2011):
Several values for one entry are separate records, joined by “and”; a condition that tells them apart may be missing. Equal entries are not always repeated. Where two headings read alike, the source gives them in different places.

How the values were obtained:
[1] = molecular target: T1, wild-type RePC (Rhizobium etli, UniProt Q2K340); format: biochemical; settings: for % kcat of pyruvate carboxylation: phosphoryl donor varied, 0.25 mM acetyl-CoA
[2] = molecular target: T2, K1119Q RePC mutant (Rhizobium etli, UniProt Q2K340, K1119Q)
[3] = molecular target: T3, T882A RePC mutant (Rhizobium etli, UniProt Q2K340, T882A)
[4] = molecular target: T1, wild-type RePC; format: biochemical
[5] = tested on: wild-type RePC (pyruvate carboxylase from R. etli); experiment: Pyruvate carboxylation activity, malate dehydrogenase coupled assay; format: biochemical, Rhizobium etli
[6] = molecular target: T1, wild-type RePC; experiment: HCO3^−-dependent ATPase activity in the absence of pyruvate; format: biochemical
[7] = molecular target: T2, K1119Q RePC mutant; experiment: HCO3^−-dependent ATPase reaction, K1119Q mutant; format: biochemical
[8] = molecular target: T3, T882A RePC mutant; remark: listed apart in the source
[9] = molecular target: T1, wild-type RePC; format: biochemical; remark: listed apart in the source
[10] = molecular target: T1, wild-type RePC; experiment: Coupling study: initial rates of Pi release at varying pyruvate; format: biochemical; settings: for Ka pyruvate, stimulation of Pi release: 15 mM HCO3^−
[11] = molecular target: T1, wild-type RePC; experiment: Coupling study: initial rates of oxaloacetate formation at varying pyruvate; settings: pyruvate varied; for kcat, oxaloacetate formation: 15 mM HCO3^−
[12] = tested on: NC(=O)OP(=O)(O)O; experiment: purified protein, by the assay type; settings: no free biotin, pH 7.5, 25.0 °C
[13] = substrate: CC(=O)C(=O)O; experiment: purified protein, by the assay type; settings: other: (−) acetyl-CoA, 15 mM HCO3^−
[14] = wild-type, (+) 10 mM free biotin
[15] = labelled substrate varied, others saturating, pH 7.5, 25° C, 0.25 mM acetyl-CoA
[16] = acetyl-CoA varied, 0.5 mM free Mg^2+, Hill fit eqn (4)
[17] = acetyl-CoA varied, 1.0 mM free Mg^2+, Hill fit eqn (4)
[18] = acetyl-CoA varied, 3.0 mM free Mg^2+, Hill fit eqn (4)
[19] = saturating acetyl-CoA and substrates

Molecule: CC(=O)OP(=O)(O)O [Acetyl phosphate]
- % kcat of pyruvate carboxylation ([1]; pH 7.5, 25° C): 0.1%
- Km [1, 14]: 140 ± 40 µM
- kcat [1, 14]: 0.00483 ± 3.3e-05 s⁻¹
- % wild-type kcat/Km ([2]; (+) 10 mM free biotin): 57%
- Km ([2]; (+) 10 mM free biotin): 370 ± 30 µM
- kcat ([2]; (+) 10 mM free biotin): 0.00733 ± 0.00017 s⁻¹
- % wild-type kcat/Km ([2]; no free biotin): 95%
- Km ([2]; no free biotin): 290 ± 10 µM
- kcat ([2]; no free biotin): 0.00783 ± 0.00017 s⁻¹
- % wild-type kcat/Km ([3]; (+) 10 mM free biotin): 40%
- Km ([3]; (+) 10 mM free biotin): 140 ± 10 µM
- kcat ([3]; (+) 10 mM free biotin): 0.002 ± 0.00017 s⁻¹
- % wild-type kcat/Km ([3]; no free biotin): 80%
- Km ([3]; no free biotin): 220 ± 10 µM
- kcat ([3]; no free biotin): 0.005 ± 0.00017 s⁻¹

Molecule: NC(=O)OP(=O)(O)O [Carbamoyl phosphate]
- % kcat of pyruvate carboxylation ([1]; pH 7.5, 25° C): 0.6%
- kcat ([1]; wild-type, no free biotin, pH 7.5, 25° C, […] MgADP, 0.25 mM acetyl-CoA (Table 7)): 0.04 ± 0.0017 s⁻¹
- % wild-type kcat/Km ([2]; (+) 10 mM free biotin): 45%
- % wild-type kcat/Km ([2]; no free biotin): 17%
- % wild-type kcat/Km ([3]; (+) 10 mM free biotin): 920%
- % wild-type kcat/Km ([3]; no free biotin): 750%

Molecule: Nc1ncnc2c1ncn2[C@@H]1O[C@H](COP(=O)(O)OP(=O)(O)O)[C@@H](O)[C@H]1O [MgADP]
- % kcat of pyruvate carboxylation ([4]; MgADP varied, pH 7.5, 25° C, 0.25 mM acetyl-CoA): 0.2%

Molecule: Nc1ncnc2c1ncn2[C@@H]1O[C@H](COP(=O)(O)OP(=O)(O)OP(=O)(O)O)[C@@H](O)[C@H]1O [MgATP]
- Km [5, 15]: 145 ± 9 µM
- kcat [5, 15]: 396 ± 10 ^d min^−1
- % kcat of pyruvate carboxylation ([6]; MgATP varied, pH 7.5, 25° C, 0.25 mM acetyl-CoA): 0.6%
- kcat ([6]; wild-type, no free biotin, pH 7.5, 25° C, 15 mM HCO3^−, 7.5 mM MgCl2, 0.25 mM acetyl-CoA): 0.043 ± 0.0015 s⁻¹
- % wild-type kcat/Km ([7]; (+) 10 mM free biotin): 40%
- % wild-type kcat/Km ([7]; no free biotin): 0.06%
- kcat ([7]; no free biotin): 0.00137 ± 1.7e-05 s⁻¹
- % wild-type kcat/Km ([8]; (+) 10 mM free biotin): 260%
- % wild-type kcat/Km ([8]; no free biotin): 225%
- kcat ([8]; no free biotin): 0.233 ± 0.033 s⁻¹

Molecule: [Mg+2] [Mg^2+]
- concentration of free Mg^2+ that inhibited pyruvate carboxylation [5]: > 7 mM
- fold increase in kcat ([5]; Mg^2+ increased from 0.5 to 3 mM, acetyl-CoA varied): 4.9 fold
- Ka for Mg^2+ for the effect on Vmax ([5]; estimated from replot of apparent 1/Vmax vs. 1/[Mg^2+], pyruvate varied): ≈ 40 mM
- concentration of free Mg^2+ that inhibited MgATP-cleavage [6]: > 7 mM
- inhibition of the MgADP phosphorylation reaction by Mg^2+ ([1]; up to 11 mM Mg^2+): no inhibition

Molecule: CC(=O)SCCNC(=O)CCNC(=O)[C@H](O)C(C)(C)COP(=O)(O)OP(=O)(O)OC[C@H]1O[C@@H](n2cnc3c(N)ncnc32)[C@H](O)[C@@H]1OP(=O)(O)O [acetyl-CoA, acetyl-coenzyme A, reference compound]
- n acetyl-CoA (Hill coefficient) ([5]; acetyl-CoA varied, 0.5 mM free Mg^2+): 2.0 ± 0.3
- Ka acetyl-CoA [5, 16]: 38 ± 2 µM
- Vmax [5, 16]: 1.16 ± 0.07 µmol/mg/min
- n acetyl-CoA (Hill coefficient) ([5]; acetyl-CoA varied, 1.0 mM free Mg^2+): 2.8 ± 0.5
- Ka acetyl-CoA [5, 17]: 26 ± 2 µM
- Vmax [5, 17]: 1.39 ± 0.06 µmol/mg/min
- n acetyl-CoA (Hill coefficient) ([5]; acetyl-CoA varied, 3.0 mM free Mg^2+): 2.6 ± 0.2
- Ka acetyl-CoA [5, 18]: 10 µM and 10.0 ± 0.4 µM
- Vmax [5, 18]: 5.7 ± 0.1 µmol/mg/min
- Vmax ([5]; acetyl-CoA varied, […] free Mg^2+, Hill fit eqn (4)): 2.59 ± 0.08 µmol/mg/min
- overall fold decrease in the Ka for acetyl-CoA ([5]; addition of 3.0 mM free Mg^2+): 3.8 fold
- kcat (specific activity), (+) acetyl-CoA [5, 19]: 11.7 ± 0.333 s⁻¹
- % rate (−) acetyl-CoA compared to the specific activity in the presence of acetyl-CoA ([5]; saturating substrates): 9%
- decrease in rate caused by lack of acetyl-CoA ([4]; full reverse reaction): 78%
- kcat (specific activity), (+) acetyl-CoA [4, 19]: 0.0139 ± 8.3e-05 s⁻¹
- % rate (−) acetyl-CoA compared to the specific activity in the presence of acetyl-CoA ([4]; saturating substrates): 18%
- decrease in rate caused by lack of acetyl-CoA ([6]; MgATP hydrolysis): 82%
- kcat (specific activity), (+) acetyl-CoA [6, 19]: 0.043 ± 0.0015 s⁻¹
- % rate (−) acetyl-CoA compared to the specific activity in the presence of acetyl-CoA ([6]; saturating substrates): 22%
- kcat (specific activity), (+) acetyl-CoA [9, 19]: 0.15 ± 0.00067 s⁻¹
- % rate (−) acetyl-CoA compared to the specific activity in the presence of acetyl-CoA ([9]; saturating substrates): 67%
- effect of acetyl-CoA on the rate of MgADP phosphorylation by carbamoyl phosphate [1]: no effect
- kcat (specific activity), (+) acetyl-CoA [1, 19]: 0.04 ± 0.0017 s⁻¹
- % rate (−) acetyl-CoA compared to the specific activity in the presence of acetyl-CoA ([1]; saturating substrates): 100%

Molecule: O=C(O)CCCC[C@@H]1SC[C@@H]2NC(=O)N[C@@H]21 [biotin]
- fold increase in the catalytic efficiency ([7]; 10 mM free biotin added): ~1000 fold
- fold decrease in the Km for MgATP ([7]; addition of 10 mM biotin): 35 fold

Molecule: O=C(O)CC(=O)C(=O)O [oxaloacetate]
- % kcat of pyruvate carboxylation ([9]; saturating substrates and activators, 1 mM oxamate, pH 7.5, 25° C): 2.0%

Molecule: NC(=O)C(=O)O [oxamate]
- fold stimulation of the rate of oxaloacetate decarboxylation compared to the full reverse reaction ([9]; saturating oxamate): 11 fold

Molecule: CC(=O)C(=O)O [pyruvate]
- Km [5, 15]: 150 ± 10 µM
- kcat [5, 15]: 440 ± 8 ^d min^−1
- Vmax ([5]; pyruvate varied, 0.7 mM free Mg^2+): 0.69 ± 0.02 µmol/mg/min
- Vmax ([5]; pyruvate varied, 3.0 mM free Mg^2+): 3.18 ± 0.08 µmol/mg/min
- Vmax ([5]; pyruvate varied, 5.0 mM free Mg^2+): 3.98 ± 0.04 µmol/mg/min
- Vmax ([5]; pyruvate varied, […] free Mg^2+): 1.41 ± 0.01 µmol/mg/min
- Km ([5]; read-out: Km pyruvate, pyruvate varied, 0.7 mM free Mg^2+): 3100 ± 200 µM
- Km ([5]; read-out: Km pyruvate, pyruvate varied, 3.0 mM free Mg^2+): 2650 ± 40 µM
- Km ([5]; read-out: Km pyruvate, pyruvate varied, 5.0 mM free Mg^2+): 150 ± 10 µM
- Km ([5]; read-out: Km pyruvate, pyruvate varied, […] free Mg^2+): 3000 ± 400 µM
- Ka pyruvate, stimulation of Pi release ([10]; (+) 0.25 mM acetyl-CoA): 0.16 ± 0.01 mM
- Ka pyruvate, stimulation of Pi release ([10]; (−) acetyl-CoA): 0.048 ± 0.008 mM
- fold increase of the rates of Pi release from the BC domain ([10]; low concentrations of pyruvate, absence of acetyl-CoA): 120-175 fold
- fold stimulation of the rate of Pi release from the BC domain ([10]; lowest concentrations of pyruvate, presence of acetyl-CoA): 300-500 fold
- Ka pyruvate (Pi release) without acetyl-CoA, % of (+) acetyl-CoA ([10]; pyruvate varied): 30%
- kcat Pi release without acetyl-CoA, % of (+) acetyl-CoA ([10]; pyruvate varied): 5.8%
- kcat/Ka (Pi release) without acetyl-CoA, % of (+) acetyl-CoA ([10]; pyruvate varied): 19%
- limiting value of the ratio oxaloacetate formation / Pi release ([10]; saturating pyruvate and acetyl-CoA): 1.08
- fold increase in the rate of Pi release ([10]; sub-saturating concentrations of pyruvate): ~300 fold
- Km pyruvate (oxaloacetate formation) without acetyl-CoA, % of (+) acetyl-CoA [11]: 2%
- kcat oxaloacetate formation without acetyl-CoA, % of (+) acetyl-CoA [11]: 0.5%
- kcat/Km (oxaloacetate formation) without acetyl-CoA, % of (+) acetyl-CoA [11]: 24%
- kcat, oxaloacetate formation ([11]; (+) 0.25 mM acetyl-CoA): 5.17 ± 0.13 s⁻¹
- kcat, oxaloacetate formation ([11]; (−) acetyl-CoA): 0.0253 ± 0.0005 s⁻¹

Molecule: K1119Q RePC mutant (Rhizobium etli CFN 42; K1119Q)
- Km ([12]; other: K1119Q): 880 ± 70 µM

Molecule: T882A RePC mutant (Rhizobium etli CFN 42; T882A)
- Km ([12]; other: T882A): 3400 ± 500 µM
- kcat ([12]; other: T882A): 0.4 s⁻¹
- kcat/Km ([12]; other: T882A): 117 M⁻¹ s⁻¹

B1: wild-type RePC (Rhizobium etli CFN 42) (protein)
chain: MPISKILVANRSEIAIRVFRAANELGIKTVAIWAEEDKLALHRFKADESYQVGRGPHLARDLGPIESYLSIDEVIRVAKLSGADAIHPGYGLLSESPEFVDACNKAGIIFIGPKADTMRQLGNKVAARNLAISVGVPVVPATEPLPDDMAEVAKMAAAIGYPVMLKASWGGGGRGMRVIRSEADLAKEVTEAKREAMAAFGKDEVYLEKLVERARHVESQILGDTHGNVVHLFERDCSVQRRNQKVVERAPAPYLSEAQRQELAAYSLKIAGATNYIGAGTVEYLMDADTGKFYFIEVNPRIQVEHTVTEVVTGIDIVKAQIHILDGAAIGTPQSGVPNQEDIRLNGHALQCRVTTEDPEHNFIPDYGRITAYRSASGFGIRLDGGTSYSGAIITRYYDPLLVKVTAWAPNPLEAISRMDRALREFRIRGVATNLTFLEAIIGHPKFRDNSYTTRFIDTTPELFQQVKRQDRATKLLTYLADVTVNGHPEAKDRPKPLENAARPVVPYANGNGVKDGTKQLLDTLGPKKFGEWMRNEKRVLLTDTTMRDGHQSLLATRMRTYDIARIAGTYSHALPNLLSLECWGGATFDVSMRFLTEDPWERLALIREGAPNLLLQMLLRGANGVGYTNYPDNVVKYFVRQAAKGGIDLFRVFDCLNWVENMRVSMDAIAEENKLCEAAICYTGDILNSARPKYDLKYYTNLAVELEKAGAHIIAVKDMAGLLKPAAAKVLFKALREATGLPIHFHTHDTSGIAAATVLAAVEAGVDAVDAAMDALSGNTSQPCLGSIVEALSGSERDPGLDPAWIRRISFYWEAVRNQYAAFESDLKGPASEVYLHEMPGGQFTNLKEQARSLGLETRWHQVAQAYADANQMFGDIVKVTPSSKVVGDMALMMVSQDLTVADVVSPDREVSFPESVVSMLKGDLGQPPSGWPEALQKKALKGEKPYTVRPGSLLKEADLDAERKVIEKKLEREVSDFEFASYLMYPKVFTDFALASDTYGPVSVLPTPAYFYGLADGEELFADIEKGKTLVIVNQAVSATDSQGMVTVFFELNGQPRRIKVPDRAHGATGAAVRRKAEPGNAAHVGAPMPGVISRVFVSSGQAVNAGDVLVSIEAMKMETAIHAEKDGTIAEVLVKAGDQIDAKDLLAVYGG
- Km [13]: 13 ± 2 µM
- kcat [13]: 0.0253 ± 0.0005 s⁻¹
